Like-named read-outs stand apart in the source and are kept apart here.

The target of test [1] is T1, hTRPM8 (Homo sapiens, UniProt Q7Z2W7).
T1 construct: expressed in transfected cells
The test is described as follows: Cell line stably expressing hTRPM8, agonist assay, compounds of Formula (I). To be noted: Table 1.7. Type of test: cell-based. The text has this:
A mammalian cell line derivative which stably expresses hTRPM8 was used in biological assays in association with testing the present compounds with cool-tasting or -feeling properties (Servant et al. US 2007/0259354 A1 and references cited therein). […] The present compounds have shown strong activity as agonists of hTRPM8. Assay results for compounds are illustrated in Table 1.1 below. Specifically, the Examples listed in Table 1.1, i.e., Compounds A1 to Compounds U10 are the specific compounds above that fall within Formula (I).

Test [2] in a line: Sensory study of topically applied Compound 101. The class given is in vivo, human. The protocol: The response of subjects to topically applied Compound 101 was assessed. Subjects were exposed to a solid formulation of Compound 101 in small quantities. […] In another assessment, subjects were exposed to a dilute airborne microparticulate Compound 101.
The target of test [3] is T1, hTRPM8. To be noted: Table 1.8; according to WO2011/061330 A2 E Table C 3-14; cited from earlier work.

T1 sequence (Q7Z2W7 whole entry): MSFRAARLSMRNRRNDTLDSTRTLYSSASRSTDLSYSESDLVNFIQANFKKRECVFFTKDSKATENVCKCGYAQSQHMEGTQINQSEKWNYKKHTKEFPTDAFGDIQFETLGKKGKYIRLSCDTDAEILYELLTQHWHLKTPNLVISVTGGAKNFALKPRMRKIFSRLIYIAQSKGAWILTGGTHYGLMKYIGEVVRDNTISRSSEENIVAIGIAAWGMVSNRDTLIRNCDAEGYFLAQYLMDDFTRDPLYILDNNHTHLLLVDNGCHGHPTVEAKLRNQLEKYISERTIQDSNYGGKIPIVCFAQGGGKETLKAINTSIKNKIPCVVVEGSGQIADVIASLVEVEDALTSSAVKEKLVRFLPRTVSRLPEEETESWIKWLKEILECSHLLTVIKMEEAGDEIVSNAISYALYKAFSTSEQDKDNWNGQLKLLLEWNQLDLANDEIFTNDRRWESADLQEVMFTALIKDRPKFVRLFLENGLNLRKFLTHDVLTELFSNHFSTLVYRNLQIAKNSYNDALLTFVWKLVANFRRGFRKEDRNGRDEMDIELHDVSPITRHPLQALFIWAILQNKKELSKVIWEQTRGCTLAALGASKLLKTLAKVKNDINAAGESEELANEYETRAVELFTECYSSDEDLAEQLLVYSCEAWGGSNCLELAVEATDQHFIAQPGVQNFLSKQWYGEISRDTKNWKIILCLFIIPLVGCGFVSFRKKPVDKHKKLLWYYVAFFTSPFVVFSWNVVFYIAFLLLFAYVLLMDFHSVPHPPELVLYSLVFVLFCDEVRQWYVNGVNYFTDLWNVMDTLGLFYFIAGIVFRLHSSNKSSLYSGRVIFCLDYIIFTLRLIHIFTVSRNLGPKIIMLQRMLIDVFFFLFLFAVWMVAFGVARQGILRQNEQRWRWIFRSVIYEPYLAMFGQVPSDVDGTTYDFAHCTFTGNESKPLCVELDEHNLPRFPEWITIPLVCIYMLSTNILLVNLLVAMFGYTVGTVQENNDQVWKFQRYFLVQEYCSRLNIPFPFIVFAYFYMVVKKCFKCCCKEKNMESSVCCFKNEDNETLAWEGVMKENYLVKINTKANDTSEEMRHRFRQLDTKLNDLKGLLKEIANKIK

For `O=C(COc1ccc(Br)cc1)N(Cc1ccccc1)c1ccccn1` [drawing 56 R=4-Br R1=2-Pyridyl Ar=Phenyl], on hTRPM8 [1], the EC50 is 15.6 µM and the “EC50 Ratio (WS-3)” value was 0.2.
The like results for `CCN(Cc1ccccc1)C(=O)COc1ccccc1` [drawing 56 R=H R1=Ethyl Ar=Phenyl] were, in that order, 9.21 µM and 0.5.
Take `Cc1ccc(OCC(=O)N(Cc2cccs2)c2ccn[nH]2)cc1` [Compound 101]: the “Sensation reported by subjects” value in test [2] (exposure to a solid formulation in small quantities) is “all subjects reported a “tingling” and “cooling” sensation”; in test [2] (exposure to dilute airborne microparticulate compound), “exhibited a “cooling smell” and induced “tingling sensation” on the skin”.
`Cc1ccc(OCC(=O)N(Cc2ccccc2)c2ccccn2)cc1` [drawing 56 R=4-Me R1=2-Pyridyl Ar=Phenyl]: at hTRPM8 [1], the response was half-maximal at 4.72 µM (EC50) and the “EC50 Ratio (WS-3)” value turned out to be 0.6.
Take `CCN(Cc1ccccc1)C(=O)COc1ccc(C)cc1` [drawing 56 R=4-Me R1=Ethyl Ar=Phenyl]: at hTRPM8 [1], the response was half-maximal at 0.776 µM (EC50) and the “EC50 Ratio (WS-3)” value stood at 4.2.
Consider `CCN(Cc1ccccc1)C(=O)C=Cc1ccc2c(c1)OCO2`, for which the EC50 on hTRPM8 [3] was 1.5 µM.
Turning to `Cc1ccc(OCC(=O)N(C)Cc2ccccc2)cc1` [drawing 56 R=4-Me R1=Methyl Ar=Phenyl], the 50% effective concentration (EC50) on hTRPM8 [1] is above 100 µM.

The term EC50 denotes the concentration that produces a half-maximal response.
